Earlier results, collected in patent publication US8183241B2, “2-oxo-1-pyrrolidine derivatives” (UCB Pharma, S.A., priority 2005, dated 2012).

Details: Eur. J. Pharmacol. (1992), 222, 193-203

Compound | activity in the treatment of epilepsy
CC[C@H](C(N)=O)N1CCCC1=O [(R)-α-ethyl-2-oxo-1-pyrrolidine acetamide] | completely lacks activity
CC[C@@H](C(N)=O)N1CCCC1=O [Levetiracetam, (S)-α-ethyl-2-oxo-1-pyrrolidine acetamide] | effective in the treatment of epilepsy
